Here are results for one molecule from patent US20090123565A9, “Copper-dependent non-traditional pro-inflammatory cytokine export and methods, compositions and kits relating thereto” (Maine Medical Center Research Institute, priority 2001, published 2009).

The subject of assay [1] is balloon-injured rat carotid artery. The assay can be described thus: Cell proliferation in injured arterial wall (α-smooth muscle actin and PCNA immunostaining). In kind it is in vivo, Sprague-Dawley rats. On the procedure: (§1) In order to address the mechanisms underlying the effect of copper chelation on neointima formation, TTM was administered for 2 weeks before the balloon injury and daily after that until the animals were euthanized at the 4th and 7th day after the procedure. Accordingly, TTM-free animals euthanized 4 and 7 days after the injury were used as controls.
Proliferating cell nuclear antigen (PCNA) analysis was used to quantify the proliferative activity of cells at the balloon injury sites, and it was performed according to Siitonen et al. Briefly, PCNA-positive cells were counted in the vessel cross sections using a standard light microscope equipped with an ocular reticule (magnification ×10) and a ×40 objective. At least 500 nuclei were counted from each slide. The sections were photographed under low power, the images were video-digitized, and stored in the image analysis system (Qwin Lite 2.2, Leica). Staining results were expressed as percentage of PCNA-immunoreactive cell nuclei. Faint diffuse nuclear staining seen in some tissue sections was not included in the PCNA score.
(§2) Macrophage migration was evaluated by immunostaining with the macrophage-specific monoclonal antibody CD11b (MAC1) in acetone/ethanol fixed sections. To quantitate the extent of macrophage invasion, the area occupied by MAC1-positive cells as a percentage of the total area of the neointima was determined. The number of SMCs in the injured artery was counted at day 4, 7 and 14 by the modified method of Prescott et al. Briefly, the cross-sections were subjected to immunohistostaining against α-smooth muscle actin using a commercially available detection system (DAKO) and counter-stained with hematoxylin. The number of nuclei that were accompanied by α-smooth muscle actin-positive cytoplasm was counted at a magnification of ×40 in 10 independent sections from each rat by an observer in a blind manner.

Assay [2] concerns IL1α release from NIH 3T3 cell transfectants. Put plainly: Heat shock-induced release of IL1α from NIH 3T3 cell transfectants (immunoblot of conditioned media). The class given is cell-based, human. On the procedure:
FIG. 5, comprising FIGS. 5A and 5B, depict the involvement of Cu^2+ in IL1α release. FIG. 5A is an image depicting results obtained using NIH 3T3 cells stably transfected with mIL1α-βGal. The cells were incubated for 18 hours at 37 C in the absence and presence of the Cu^2+ chelator, tetrathiomolybdate (TTM) as indicated and the untreated and treated cells either maintained at 37 C or subjected to heat shock as described in FIG. 3. The conditioned medium was evaluated for IL1α-βGal release by IL1α immunoblot analysis, and cell lysates from TTM-treated cells were used to monitor the intracellular level of IL1α-βGal expression. […] FIG. 5B is an image depicting release of IL1α-βGal in myc-S100A13 and IL1α-βGal NIH 3T3 cell cotransfectants and in insert-less vector and mIL1α-βGal NIH 3T3 cell transfectants in the presence and absence actinomycin D (10 μg/ml), as indicated, in response to heat shock. Conditioned media were processed and evaluated for IL1α-βGal immunoblot analysis as described in Tarantini et al. (2001).
Stable NIH 3T3 cell transfectants were generated accordingly with the following cDNA constructs cloned into pMEXneo (Tarantini, et al. 2001; Tarantini, et al. 1995; Tarantini, et al. 1998; LaVallee, et al. 1998; Carreira, et al. 1998; Landriscina, et al., 2001): human S100A13 with an amino-terminal fusion to a 6 Myc Tag (Myc-S100A13) (Landriscina, et al., 2001); human Myc-S100A13ΔBR (Landriscina, et al., 2001); human mIL1α (residues 113-271); human mIL1α with a carboxy-terminal fusion to a βGalactosidase tag (mIL1α-βGal) (Tarantini, et al. 2001); and pIL1α (residues 1-271) with a carboxy-terminal fusion to βGalactosidase (pIL1α-βGal) (Tarantini, et al. 2001). Recombinant human mIL1α was provided by Hoffmann-LaRoche. Recombinant human S100A13, as well as S100A13ΔBR, a S100A13 construct with the basic residue rich domain (residues 88 to 98) deleted, were generated as previously described (Landriscina, et al., 2001).
NIH 3T3 cell transfectants were grown to 70-80% confluency and prior to temperature stress, the cells were washed with serum-free DMEM. The heat shock was performed as previously described (Tarantini et al., 1995) in serum-free DMEM for 110 min at 42° C. Control cultures were incubated at 37° C. in serum-free DMEM. […] Immunoprecipitated and eluted proteins were resolved by 8% and 12% acrylamide SDS-PAGE, respectively, and evaluated by either IL1α (Tarantini, et al. 2001) or Myc (Landriscina, et al., 2001) immunoblot analysis. […] The effects of actinomycin D (Sigma Chemical Co., St. Louis, Mo.), cyclohexamide (Sigma) and tetrathiomolybdate (Sigma-Aldrich) on IL1α release were evaluated as previously reported (LaVallee et al., 1998).

Assay [3] has as its system balloon-injured rat carotid artery. The assay can be described thus: Macrophage infiltration into injured arterial wall (CD11b/MAC1 immunostaining). The class given is in vivo, Sprague-Dawley rats. As for the experimental part:
as §1, §2

Regarding `[NH4+].[NH4+].[SH-].[SH-].[S]=[Mo]=[S]` [TTM, ammonium tetrathiomolybdate], the “SMA-positive cells in the neointima vs TTM-free rats” value in assay [1] (7 and 14 days after the injury) was “significantly less abundant”; in assay [1] (day 4 after the balloon injury), “No significant difference”. For the same molecule, the “PCNA-positive cells in the neointimal area” value in assay [1] (14 days after balloon angioplasty, 10 mg/kg, 2 weeks before/2 weeks after injury, n=5, P<0.05) was “significant reduction”. Besides, in assay [2] (NIH 3T3 cells stably transfected with mIL1α-βGal, incubated 18 hours at 37 C with TTM, then heat shock, IL1α immunoblot (FIG. 5A)), the “concentration at which TTM inhibited release of IL1α in response to heat shock” value is 250 nM. In addition, the “repression of release of IL1α-βGal in response to temperature stress” value in assay [2] (TTM introduced into the Myc-S100A13 and IL1α-βGal cotransfectant system with actinomycin D) is recorded as “able to repress”. In assay [3] (4 and 7 days after the injury), the “MAC1 positive cells in controls compared to treated rats” value is “marked increase”. Moreover, the “macrophages in the neointima vs control group” value in assay [3] (4 days after injury) was “not detectably different”. Further, the “macrophages within the arterial wall” value in assay [3] (any time point after the injury (4 and 7 days)) is “very few macrophages were present”. Besides, the macrophages vs controls entry in assay [3] (day 7 after injury) is “more pronounced in the controls”.
